Columns and labels:
[1] = tested on: 4th stage larvae (L4) of Dirofilaria immitis; assay: Dirofilaria immitis, L4 Stage (DiL4) In Vitro Assay; format: cell-based; settings: Dirofilaria immitis, 72 h, read-out: DiL4 Minimum Effective Dose (MED), approximately 72 hours incubation; L4 larvae assessed for survival or paralysis
[2] = tested on: third stage larvae of Haemonchus contortus; assay: Haemonchus contortus L3 (HcL3) Assay; format: cell-based; settings: 96 h, read-out: HcL3 Minimum Effective Dose (MED)

SMILES | minimal effective concentration [1] [µM] | minimal effective concentration [2] [µM]
Cc1cccc(-c2ccnn2Cc2ccc(C[C@H]3OC(=O)[C@H](CC(C)C)N(C)C(=O)[C@@H](C)OC(=O)[C@H](CC(C)C)N(C)C(=O)[C@@H](Cc4ccc(Cn5nccc5-c5cccc(C)n5)cc4)OC(=O)[C@H](CC(C)C)N(C)C(=O)[C@@H](C)OC(=O)[C@H](CC(C)C)N(C)C3=O)cc2)n1 [Example 1b-177, (3S,6R,9S,12R,15S,18R,21S,24R)-3,9,15,21-tetraisobutyl-4,6,10,16,18,22-hexamethyl-12,24-bis(4-((5-(6-methylpyridin-2-yl)-1H-pyrazol-1-yl)methyl)benzyl)-1,7,13,19-tetraoxa-4,10,16,22-tetraazacyclotetracosan-2,5,8,11,14,17,20,23-octaone] | ≤ 0.0001 | ≤ 1
CCc1ncnn1Cc1ccc(C[C@H]2OC(=O)[C@H](CC(C)C)N(C)C(=O)[C@@H](C)OC(=O)[C@H](CC(C)C)N(C)C(=O)[C@@H](Cc3ccc(Cn4ncnc4CC)cc3)OC(=O)[C@H](CC(C)C)N(C)C(=O)[C@@H](C)OC(=O)[C@H](CC(C)C)N(C)C2=O)cc1 [Example 9-50, (3S,6R,9S,12R,15S,18R,21S,24R)-6,18-bis(4-((5-ethyl-1H-1,2,4-triazol-1-yl)methyl)benzyl)-3,9,15,21-tetraisobutyl-4,10,12,16,22,24-hexamethyl-1,7,13,19-tetraoxa-4,10,16,22-tetraazacyclotetracosan-2,5,8,11,14,17,20,23-octaone] | 0.001 to 0.01 | 1 to 10
CC(C)C[C@H]1C(=O)O[C@H](Cc2ccc(Cn3nccc3-c3ccc(F)cn3)cc2)C(=O)N(C)[C@@H](CC(C)C)C(=O)O[C@H](C)C(=O)N(C)[C@@H](CC(C)C)C(=O)O[C@H](Cc2ccc(Cn3nccc3-c3ccc(F)cn3)cc2)C(=O)N(C)[C@@H](CC(C)C)C(=O)O[C@H](C)C(=O)N1C [Example 1b-189, (3S,6R,9S,12R,15S,18R,21S,24R)-6,18-bis(4-((5-(5-fluoropyridin-2-yl)-1H-pyrazol-1-yl)methyl)benzyl)-3,9,15,21-tetraisobutyl-4,10,12,16,22,24-hexamethyl-1,7,13,19-tetraoxa-4,10,16,22-tetraazacyclotetracosan-2,5,8,11,14,17,20,23-octaone] | 0.0001 to 0.001 | 10 to 100
CCOc1cnn(C(C)(C)c2ccc(C[C@H]3OC(=O)[C@H](CC(C)C)N(C)C(=O)[C@@H](C)OC(=O)[C@H](CC(C)C)N(C)C(=O)[C@@H](Cc4ccc(C(C)(C)n5cc(OCC)cn5)cc4)OC(=O)[C@H](CC(C)C)N(C)C(=O)[C@@H](C)OC(=O)[C@H](CC(C)C)N(C)C3=O)cc2)c1 [Example 1b-171, (3S,6R,9S,12R,15S,18R,21S,24R)-6,18-bis(4-(2-(4-ethoxy-1H-pyrazol-1-yl)propan-2-yl)benzyl)-3,9,15,21-tetraisobutyl-4,10,12,16,22,24-hexamethyl-1,7,13,19-tetraoxa-4,10,16,22-tetraazacyclotetracosan-2,5,8,11,14,17,20,23-octaone] | ≤ 0.0001 | ≤ 1
COCc1ccn(Cc2ccc(C[C@H]3OC(=O)[C@H](CC(C)C)N(C)C(=O)[C@@H](C)OC(=O)[C@H](CC(C)C)N(C)C(=O)[C@@H](Cc4ccc(Cn5nccc5COC)cc4)OC(=O)[C@H](CC(C)C)N(C)C(=O)[C@@H](C)OC(=O)[C@H](CC(C)C)N(C)C3=O)cc2)n1 [Example 1a-37, (3S,6R,9S,12R,15S,18R,21S,24R)-3,9,15,21-tetraisobutyl-6-(4-((3-(methoxymethyl)-1H-pyrazol-1-yl)methyl)benzyl)-18-(4-((5-(methoxymethyl)-1H-pyrazol-1-yl)methyl)benzyl)-4,10,12,16,22,24-hexamethyl-1,7,13,19-tetraoxa-4,10,16,22-tetraazacyclotetracosan-2,5,8,11,14,17,20,23-octaone] | 0.0001 to 0.001 | 1 to 10
CC(C)C[C@H]1C(=O)O[C@H](Cc2ccc(Cn3ncnc3CC3CC3)cc2)C(=O)N(C)[C@@H](CC(C)C)C(=O)O[C@H](C)C(=O)N(C)[C@@H](CC(C)C)C(=O)O[C@H](Cc2ccc(Cn3ncnc3CC3CC3)cc2)C(=O)N(C)[C@@H](CC(C)C)C(=O)O[C@H](C)C(=O)N1C [Example 9-55, (3S,6R,9S,12R,15S,18R,21S,24R)-6,18-bis(4-((5-(cyclopropylmethyl)-1H-1,2,4-triazol-1-yl)methyl)benzyl)-3,9,15,21-tetraisobutyl-4,10,12,16,22,24-hexamethyl-1,7,13,19-tetraoxa-4,10,16,22-tetraazacyclotetracosan-2,5,8,11,14,17,20,23-octaone] | 0.0001 to 0.001 | ≤ 1
CC(C)C[C@H]1C(=O)O[C@H](Cc2ccc(Cn3cc(F)cn3)cc2)C(=O)N(C)[C@@H](CC(C)C)C(=O)O[C@H](C)C(=O)N(C)[C@@H](CC(C)C)C(=O)O[C@H](Cc2ccc(Cn3cc(F)cn3)cc2)C(=O)N(C)[C@@H](CC(C)C)C(=O)O[C@H](C)C(=O)N1C [Example 1b-17, (3S,6R,9S,12R,15S,18R,21S,24R)-6,18-bis(4-((4-fluoro-1H-pyrazol-1-yl)methyl)benzyl)-3,9,15,21-tetraisobutyl-4,10,12,16,22,24-hexamethyl-1,7,13,19-tetraoxa-4,10,16,22-tetraazacyclotetracosan-2,5,8,11,14,17,20,23-octaone] | 0.0001 to 0.001 | 1 to 10
CC(C)C[C@H]1C(=O)O[C@H](Cc2ccc(C(C)(C)n3cccn3)cc2)C(=O)N(C)[C@@H](CC(C)C)C(=O)O[C@H](C)C(=O)N(C)[C@@H](CC(C)C)C(=O)O[C@H](Cc2ccc(C(C)(C)n3cccn3)cc2)C(=O)N(C)[C@@H](CC(C)C)C(=O)O[C@H](C)C(=O)N1C [Example 1c-6, (3S,6R,9S,12R,15S,18R,21S,24R)-6,18-bis(4-(2-(1H-pyrazol-1-yl)propan-2-yl)benzyl)-3,9,15,21-tetraisobutyl-4,10,12,16,22,24-hexamethyl-1,7,13,19-tetraoxa-4,10,16,22-tetraazacyclotetracosan-2,5,8,11,14,17,20,23-octaone] | ≤ 0.0001 | ≤ 1
CCOc1ccn(Cc2ccc(C[C@H]3OC(=O)[C@H](CC(C)C)N(C)C(=O)[C@@H](C)OC(=O)[C@H](CC(C)C)N(C)C(=O)[C@@H](Cc4ccc(Cn5nccc5OCC)cc4)OC(=O)[C@H](CC(C)C)N(C)C(=O)[C@@H](C)OC(=O)[C@H](CC(C)C)N(C)C3=O)cc2)n1 [Example 1a-36, (3S,6R,9S,12R,15S,18R,21S,24R)-6-(4-((3-ethoxy-1H-pyrazol-1-yl)methyl)benzyl)-18-(4-((5-ethoxy-1H-pyrazol-1-yl)methyl)benzyl)-3,9,15,21-tetraisobutyl-4,10,12,16,22,24-hexamethyl-1,7,13,19-tetraoxa-4,10,16,22-tetraazacyclotetracosan-2,5,8,11,14,17,20,23-octaone] | 0.0001 to 0.001 | 1 to 10

Reference: patent US11331369B2, “Endoparasitic depsipeptides” (Zoetis Services LLC, priority 2017, dated 2022)
